{"source": "ChEMBL document CHEMBL5120927", "about": "“LEGO-Lipophosphonoxins: A Novel Approach in Designing Membrane Targeting Antimicrobials” (J Med Chem, 2022)", "key": {"[1]": {"test_system": "Staphylococcus epidermidis", "experiment": "Antibacterial activity against Staphylococcus epidermidis CCM 7221 assessed as inhibition of bacterial growth incubated for 24 hrs by microdilution assay", "format": "functional"}, "Pseudomonas aeruginosa [2]": {"test_system": "Pseudomonas aeruginosa", "experiment": "Antibacterial activity against multidrug-resistant Pseudomonas aeruginosa assessed as reduction in microbial growth incubated for 24 hrs by microdilution assay", "format": "functional"}, "Escherichia coli [3]": {"test_system": "Escherichia coli", "experiment": "Antibacterial activity against Escherichia coli ATCC 25922 = CCM 3954 assessed as inhibition of bacterial growth incubated for 24 hrs by microdilution assay", "format": "functional"}, "[4]": {"experiment": "Toxicity in rabbit assessed as skin irritation at 100 to 200 mg/L after administration bandaged for 4 hrs and measured after 1 to 72 hrs of contact time", "set-up": "species or system Oryctolagus cuniculus", "conditions": "in vivo, topical_or_ocular, dose lower 100 mg/L, time lower 1 hrs, dose upper 200 mg/L, time upper 76 hrs"}, "Staphylococcus aureus [5]": {"test_system": "Staphylococcus aureus", "experiment": "Antibacterial activity against wild type Staphylococcus aureus 4557/A assessed as reduction in microbial growth incubated for 24 hrs by microdilution assay", "format": "functional"}, "[6]": {"experiment": "Toxicity in human cornea epidermis model assessed as eye irritation incubated for 42 hrs", "format": "tissue-based"}, "Staphylococcus aureus [7]": {"test_system": "Staphylococcus aureus", "experiment": "Antibacterial activity against Staphylococcus aureus CCM 4223 persisters assessed as reduction in bacterial cell count at 1 to 10 times MIC incubated for 3 hrs by cell counting method", "format": "functional, organism-based"}, "Escherichia coli [8]": {"test_system": "Escherichia coli", "experiment": "Antibacterial activity against Escherichia coli ATCC 25922 = CCM 3954 assessed as inhibition of bacterial growth incubated for 24 hrs in presence of BSA by microdilution assay", "format": "functional"}, "Cell membrane [9]": {"test_system": "Cell membrane", "experiment": "Induction of plasma membrane depolarization in Escherichia coli CCM 3954 assessed as increase in fluorescence intensity at 2.5 mg/L measured after 80 seconds by DiSC3-5 dye based spectrofluorometer method", "format": "cell membranes", "conditions": "time 80.0 sec"}, "Staphylococcus aureus [10]": {"test_system": "Staphylococcus aureus", "experiment": "microbe, parasite or virus in culture", "conditions": "4862/C, 24 h", "description": "Antibacterial activity against wild type Staphylococcus aureus 4862/C assessed as reduction in microbial growth incubated for 24 hrs by microdilution assay"}, "Staphylococcus aureus [11]": {"test_system": "Staphylococcus aureus", "experiment": "Antibacterial activity against wild type Staphylococcus aureus 4482/A assessed as reduction in microbial growth incubated for 24 hrs by microdilution assay", "format": "functional"}, "Staphylococcus aureus [12]": {"test_system": "Staphylococcus aureus", "experiment": "Antibacterial activity against methicillin resistant Staphylococcus aureus 4591/A assessed as reduction in microbial growth incubated for 24 hrs by microdilution assay", "format": "functional"}, "Staphylococcus aureus [13]": {"test_system": "Staphylococcus aureus", "experiment": "microbe, parasite or virus in culture", "conditions": "4880/C, 24 h", "description": "Antibacterial activity against wild type Staphylococcus aureus 4880/C assessed as reduction in microbial growth incubated for 24 hrs by microdilution assay"}, "Cell membrane [14]": {"test_system": "Cell membrane", "experiment": "Induction of cell envelope damage in Staphylococcus aureus assessed as membranous nanotubes extrude from dying/dead cells at 8 mg/L measured after 8 hrs by scanning electron microscope analysis"}, "Staphylococcus aureus [15]": {"test_system": "Staphylococcus aureus", "experiment": "Antibacterial activity against Staphylococcus aureus ATCC 29213 = CCM 4223 assessed as inhibition of bacterial growth incubated for 24 hrs in presence of BSA by microdilution assay", "format": "functional"}, "Escherichia coli [16]": {"test_system": "Escherichia coli", "experiment": "Antibacterial activity against Escherichia coli CCM 3954 assessed as time to reduce microbial population at 2 mg/L measured by time-kill assay", "format": "functional"}, "Staphylococcus aureus [17]": {"test_system": "Staphylococcus aureus", "experiment": "microbe, parasite or virus in culture", "conditions": "5017/C, 24 h", "description": "Antibacterial activity against wild type Staphylococcus aureus 5017/C assessed as reduction in microbial growth incubated for 24 hrs by microdilution assay"}, "Pseudomonas aeruginosa [18]": {"test_system": "Pseudomonas aeruginosa", "experiment": "Antibacterial activity against Pseudomonas aeruginosa CCM 3955 persisters assessed as reduction in bacterial cell count at 1 to 10 times MIC incubated for 3 hrs by cell counting method", "format": "functional, organism-based"}, "Staphylococcus aureus [19]": {"test_system": "Staphylococcus aureus", "experiment": "Antibacterial activity against […] Staphylococcus aureus 4461/A assessed as reduction in microbial growth incubated for 24 hrs by microdilution assay", "format": "functional"}, "Escherichia coli [20]": {"test_system": "Escherichia coli", "experiment": "Antibacterial activity against multidrug-resistant Escherichia coli CE5556 expressing CTX-M-15 assessed as reduction in microbial growth incubated for 24 hrs by microdilution assay", "format": "functional"}, "Staphylococcus aureus [21]": {"test_system": "Staphylococcus aureus", "experiment": "Antibacterial activity against wild type Staphylococcus aureus 4566/A assessed as reduction in microbial growth incubated for 24 hrs by microdilution assay", "format": "functional"}, "Escherichia coli [22]": {"test_system": "Escherichia coli", "experiment": "Bactericidal activity against Escherichia coli CCM 3954 assessed as reduction in viable cell count measured after 24 hrs by Time kill assay", "format": "functional, organism-based", "conditions": "dose 2-8 mg/L, DDE = dose-dependent effect"}, "[23]": {"experiment": "Toxicity in human epidermis model assessed as skin irritation incubated for 42 hrs", "format": "tissue-based"}, "Staphylococcus aureus [24]": {"test_system": "Staphylococcus aureus", "experiment": "Antibacterial activity against wild type Staphylococcus aureus 4717/B assessed as reduction in microbial growth incubated for 24 hrs by microdilution assay", "format": "functional"}, "Cell membrane [25]": {"test_system": "Cell membrane", "experiment": "Induction of cell envelope damage in Staphylococcus aureus assessed as loss of cytoplasmic content at 8 mg/L measured after 8 hrs by scanning electron microscope analysis", "format": "subcellular"}, "Staphylococcus aureus [26]": {"test_system": "Staphylococcus aureus", "experiment": "Antibacterial activity against […] Staphylococcus aureus 4460/A assessed as reduction in microbial growth incubated for 24 hrs by microdilution assay", "format": "functional"}, "Pseudomonas aeruginosa [27]": {"test_system": "Pseudomonas aeruginosa", "experiment": "Antibacterial activity against Pseudomonas aeruginosa assessed as reduction in microbial growth measured after 20 cycles by microdilution assay", "format": "functional", "conditions": "time 24 hrs"}, "Staphylococcus aureus [28]": {"test_system": "Staphylococcus aureus", "experiment": "Antibacterial activity against wild type Staphylococcus aureus 4883/C assessed as reduction in microbial growth incubated for 24 hrs by microdilution assay", "format": "functional"}, "Staphylococcus aureus [29]": {"test_system": "Staphylococcus aureus", "experiment": "Antibacterial activity against wild type Staphylococcus aureus 4515/A assessed as reduction in microbial growth incubated for 24 hrs by microdilution assay", "format": "functional"}, "Escherichia coli [30]": {"test_system": "Escherichia coli", "experiment": "Antibacterial activity against Escherichia coli CCM 3954 persisters assessed as reduction in bacterial cell count at 1 to 10 times MICincubated for 3 hrs by cell counting method", "format": "functional, organism-based"}, "Cell membrane [31]": {"test_system": "Cell membrane", "experiment": "Induction of plasma membrane depolarization in Staphylococcus aureus assessed as formation of fluctuating unstable pores at 2.5 mg/L", "format": "cell membranes"}, "Staphylococcus aureus [32]": {"test_system": "Staphylococcus aureus", "experiment": "Antibacterial activity against wild type Staphylococcus aureus 4561/A assessed as reduction in microbial growth incubated for 24 hrs by microdilution assay", "format": "functional"}, "Cell membrane [33]": {"test_system": "Cell membrane", "experiment": "Induction of membrane permeabilization in Escherichia coli CCM 3954 assessed as propidium iodide influx measured after 80 mins by spectrofluorometer method", "conditions": "dose 2.5-5 mg/L, DDE = dose-dependent effect"}, "Cell membrane [34]": {"test_system": "Cell membrane", "experiment": "Induction of cell envelope damage in Staphylococcus aureus assessed as tubular structure at 8 mg/L measured after 8 hrs by scanning electron microscope analysis"}, "[35]": {"experiment": "Toxicity in human cornea epidermis model assessed as tissue viability pretreated for 1 hr and measured after 42 hrs by MTT assay relative to control", "format": "tissue-based", "conditions": "read-out: Activity"}, "Staphylococcus aureus [36]": {"test_system": "Staphylococcus aureus", "experiment": "Antibacterial activity against wild type Staphylococcus aureus 4504/A assessed as reduction in microbial growth incubated for 24 hrs by microdilution assay", "format": "functional"}, "Staphylococcus aureus [37]": {"test_system": "Staphylococcus aureus", "experiment": "Antibacterial activity against wild type Staphylococcus aureus 77/CF assessed as reduction in microbial growth incubated for 24 hrs by microdilution assay", "format": "functional"}, "Staphylococcus aureus [38]": {"test_system": "Staphylococcus aureus", "experiment": "Antibacterial activity against wild type Staphylococcus aureus 4788/B assessed as reduction in microbial growth incubated for 24 hrs by microdilution assay", "format": "functional"}, "Enterococcus faecalis": {"test_system": "Enterococcus faecalis", "experiment": "Antibacterial activity against Enterococcus faecalis ATCC 29212 = CCM 4224 assessed as inhibition of bacterial growth incubated for 24 hrs by microdilution assay", "format": "functional"}, "Pseudomonas aeruginosa [39]": {"test_system": "Pseudomonas aeruginosa", "experiment": "Antibacterial activity against Pseudomonas aeruginosa ATCC 27853 = CCM 3955 assessed as inhibition of bacterial growth incubated for 24 hrs by microdilution assay", "format": "functional"}, "Enterococcus faecium": {"test_system": "Enterococcus faecium", "experiment": "Antibacterial activity against vancomycin resistant Enterococcus faecium 419/ANA assessed as reduction in microbial growth incubated for 24 hrs by microdilution assay", "format": "functional"}, "Staphylococcus aureus [40]": {"test_system": "Staphylococcus aureus", "experiment": "Antibacterial activity against wild type Staphylococcus aureus 5079/C assessed as reduction in microbial growth incubated for 24 hrs by microdilution assay", "format": "functional"}, "[41]": {"experiment": "Cytotoxicity against human HepG2 cells assessed as reduction in cell viability", "format": "toxicity, cell-based"}}, "note": "Activity calls are given as the source filed them. No cut-off for these calls is given here.", "data": [{"smiles": "CCCCCCCCOP(=O)(CCN(CCCN)CCCN)OCCCCCCOP(=O)(CCN(CCCN)CCCN)OCCCCCCCC.Cl.Cl.Cl.Cl.Cl.Cl", "note": "(stereo not drawn)", "values": [{"measurement": "MIC", "setting": "[1]", "value": 0.5, "unit": "µg/mL"}, {"measurement": "MIC", "setting": "Pseudomonas aeruginosa [2]", "value": 2, "unit": "µg/mL"}, {"measurement": "MIC", "setting": "Escherichia coli [3]", "value": 0.5, "unit": "µg/mL"}, {"measurement": "Activity", "setting": "[4]", "value": "Non-Toxic"}, {"measurement": "MIC", "setting": "Staphylococcus aureus [5]", "value": 0.5, "unit": "µg/mL"}, {"measurement": "Activity", "setting": "[6]", "value": "Non-Toxic"}, {"measurement": "Activity", "setting": "Staphylococcus aureus [7]", "value": "Active"}, {"measurement": "MIC", "setting": "Escherichia coli [8]", "value": 0.5, "unit": "µg/mL"}, {"measurement": "Activity", "setting": "Cell membrane [9]", "value": "Active"}, {"measurement": "MIC", "setting": "Staphylococcus aureus [10]", "value": 0.5, "unit": "µg/mL"}, {"measurement": "MIC", "setting": "Staphylococcus aureus [11]", "value": 0.5, "unit": "µg/mL"}, {"measurement": "MIC", "setting": "Staphylococcus aureus [12]", "value": 1, "unit": "µg/mL"}, {"measurement": "MIC", "setting": "Staphylococcus aureus [13]", "value": 0.5, "unit": "µg/mL"}, {"measurement": "Activity", "setting": "Cell membrane [14]", "value": "Active"}, {"measurement": "MIC", "setting": "Staphylococcus aureus [15]", "value": 1, "unit": "µg/mL"}, {"measurement": "Time", "setting": "Escherichia coli [16]", "value": 12, "unit": "h"}, {"measurement": "MIC", "setting": "Staphylococcus aureus [17]", "value": 0.5, "unit": "µg/mL"}, {"measurement": "Activity", "setting": "Pseudomonas aeruginosa [18]", "value": "Active"}, {"measurement": "MIC", "setting": "Staphylococcus aureus [19]", "value": 0.5, "unit": "µg/mL"}, {"measurement": "MIC", "setting": "Escherichia coli [20]", "value": 1, "unit": "µg/mL"}, {"measurement": "MIC", "setting": "Staphylococcus aureus [21]", "value": 0.5, "unit": "µg/mL"}, {"measurement": "Activity", "setting": "Escherichia coli [22]", "value": "Dde"}, {"measurement": "Activity", "setting": "[23]", "value": "Non-Toxic"}, {"measurement": "MIC", "setting": "Staphylococcus aureus [24]", "value": 0.5, "unit": "µg/mL"}, {"measurement": "Activity", "setting": "Cell membrane [25]", "value": "Active"}, {"measurement": "MIC", "setting": "Staphylococcus aureus [26]", "value": 1, "unit": "µg/mL"}, {"measurement": "fold change (FC)", "setting": "Pseudomonas aeruginosa [27]", "value": 32}, {"measurement": "MIC", "setting": "Staphylococcus aureus [28]", "value": 1, "unit": "µg/mL"}, {"measurement": "MIC", "setting": "Staphylococcus aureus [29]", "value": 1, "unit": "µg/mL"}, {"measurement": "Activity", "setting": "Escherichia coli [30]", "value": "Active"}, {"measurement": "Activity", "setting": "Cell membrane [31]", "value": "Active"}, {"measurement": "MIC", "setting": "Staphylococcus aureus [32]", "value": 0.5, "unit": "µg/mL"}, {"measurement": "Activity", "setting": "Cell membrane [33]", "value": "Dde"}, {"measurement": "Activity", "setting": "Cell membrane [34]", "value": "Active"}, {"measurement": "viability at 42 h", "setting": "[35]", "value": "> 60", "unit": "%"}, {"measurement": "MIC", "setting": "Staphylococcus aureus [36]", "value": 0.5, "unit": "µg/mL"}, {"measurement": "MIC", "setting": "Staphylococcus aureus [37]", "value": 0.5, "unit": "µg/mL"}, {"measurement": "MIC", "setting": "Staphylococcus aureus [38]", "value": 0.5, "unit": "µg/mL"}, {"measurement": "MIC", "setting": "Enterococcus faecalis", "value": 1, "unit": "µg/mL"}, {"measurement": "MIC", "setting": "Pseudomonas aeruginosa [39]", "value": 2, "unit": "µg/mL"}, {"measurement": "MIC", "setting": "Enterococcus faecium", "value": 8, "unit": "µg/mL"}, {"measurement": "MIC", "setting": "Staphylococcus aureus [40]", "value": 0.5, "unit": "µg/mL"}, {"measurement": "CC50", "setting": "[41]", "value": 33.1, "unit": "µM"}]}]}
